Here are results for four compounds from patent publication US20090042913A1, “Indolylalkylthienopyrimidylamines as modulators of the EP2 receptor” (priority 2007, published 2009).

Test [1] has as its system cumulus-oocyte complexes (PGE2-induced cumulus expansion). The test is described as follows: Cumulus expansion assay in vitro. The format is cell-based, mice. To be noted: in competition with PGE2. The protocol:
Folliculogenesis is induced in immature female mice at an age of 14-18 days by a single dose (intraperitoneal) of 10 I.U. of PMSG (Pregnant Mare Serum Gonadotropin; Sigma G-4877, Lot 68H0909). 47-50 hours after the injection, the ovaries are removed and the cumulus-oocyte complexes are removed. The cumulus complex is not yet expanded at this stage.
The cumulus-oocyte complexes are then incubated with prostaglandin E2 (PGE2) (0.3 μM), vehicle control (ethanol) or test substances for 20-24 hours. Medium: alpha-MEM medium with 0.1 mM IBMX, pyruvates (0.23 mM) glutamines (2 mM), pen/strep 100 IU/ml pen. and 100 μg/ml strep. and HSA (8 mg/ml). Cumulus expansion is then established through the division into four stages (according to Vanderhyden et al. Dev Biol. 1990 August; 140(2):307-317).

For test [2], the target named is T1, human prostaglandin E2 (subtype EP2) receptor (Homo sapiens, UniProt P43116).
T1 construct: host or cells: cells in a cell culture plate
The test is described as follows: cAMP antagonism assay (HTRF cAMP detection, PGE2-stimulated cells). Type of test: cell-based. To be noted: cAMP antagonism test, in presence of PGE2. The protocol:
(§1) The binding of PGE2 to the EP2 subtype of the human PGE2 receptor induces activation of membrane-associated adenylate cyclases and leads to the formation of cAMP. In the presence of the phosphodiesterase inhibitor IBMX, cAMP which has accumulated due to this stimulation and been released by cell lysis is employed in a competitive detection method. In this assay, the cAMP in the lysate competes with cAMP-XL665 for binding of an Eu cryptate-labelled anti-cAMP antibody.
(§2) The two signals are measured in a suitable measuring instrument with a time lag, i.e. after the background fluorescence has declined.
The substance solutions (0.75 μl) introduced into an assay plate and 30% DMSO are dissolved in 16 μl of a KRSB+IBMX stimulation solution (1× Krebs-Ringer Bicarbonate Buffer; Sigma-Aldrich # K-4002; including 750 μM 3-isobutyl-1-methylxanthine Sigma-Aldrich # I-7018), and then 15 μl thereof are transferred into a media-free cell culture plate which has been washed with KRSB shortly beforehand.
After preincubation at room temperature (RT) for 30 minutes, 5 μl of a 4×PGE2 solution (11 nM) are added, and incubation is carried out in the presence of the agonist at RT for a further 60 min (volume: ˜20 μl) before the reaction is then stopped by adding 5 μl of lysis buffer and incubated at RT for a further 20 min (volume: ˜25 μl). The cell lysate is then transferred into a measuring plate and measured in accordance with the manufacturer's information (cyclic AMP kit Cisbio International # 62AMPPEC).
Background: Time-resolved FRET reads energy transfer from a long-lived donor to a nearby acceptor.

Test [3] deals with T1, human prostaglandin E2 (subtype EP2) receptor. The test can be described thus: cAMP agonism assay (cellular agonism test). Type of test: cell-based. The following applies: without PGE2. The procedure:
as §1, §2
The substance solutions (0.75 μl) introduced into an assay plate and 30% DMSO are dissolved in 16 μl of a KRSB+IBMX stimulation solution (1× Krebs-Ringer Bicarbonate Buffer; Sigma-Aldrich # K-4002; including 750 μM 3-isobutyl-1-methylxanthine Sigma-Aldrich # 1-7018), and then 15 μl thereof are transferred into a media-free cell culture plate which has been washed with KRSB shortly beforehand.
After incubation at room temperature (RT; volume: ˜15 μl) for 60 minutes, the reaction is then stopped by adding 5 μl of lysis buffer and incubated at RT for a further 20 min (volume: ˜20 μl). The cell lysate is then transferred into a measuring plate and measured in accordance with the manufacturer's instructions (cyclic AMP kit Cisbio International # 62AMPPEC).

T1 sequence (P43116 whole entry): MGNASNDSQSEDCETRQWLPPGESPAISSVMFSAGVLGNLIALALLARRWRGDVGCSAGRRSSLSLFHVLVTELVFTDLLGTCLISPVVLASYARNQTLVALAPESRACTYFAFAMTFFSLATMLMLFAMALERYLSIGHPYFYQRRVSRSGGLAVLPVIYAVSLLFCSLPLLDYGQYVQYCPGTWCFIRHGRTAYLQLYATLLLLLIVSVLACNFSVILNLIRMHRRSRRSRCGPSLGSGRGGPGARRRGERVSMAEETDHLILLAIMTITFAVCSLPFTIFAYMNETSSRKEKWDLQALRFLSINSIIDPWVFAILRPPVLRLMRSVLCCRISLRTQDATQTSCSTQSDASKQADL

As to `CC(C)Oc1ccc2c(=O)c3cc(C(=O)O)ccc3oc2c1` [AH 6809, reference compound], the “suppression of cumulus expansion” value in test [1] (100-200 μM) was “approx. 30%”.
A word on the IC50: it is the concentration that inhibits the measured activity by half. As for `Cc1[nH]c2c(F)ccc(C)c2c1CCNc1ncnc2cc(-c3cccc(F)c3)sc12` [Example 22, [2-(7-fluoro-2,4-dimethyl-1H-indol-3-yl)ethyl]-[6-(3-fluorophenyl)thieno[3,2-d]pyrimidin-4-yl]amine], the IC50 in test [2] was determined as 0.111 µM. Moreover, the “effect in the cellular agonism test” value in test [3] was “no inhibition”. Besides, in test [1] (10 μM), the “suppression of cumulus expansion” value was determined as 45%.
For the compound `Cc1[nH]c2c(F)ccc(C)c2c1CCNc1ncnc2cc(-c3ccc(C(F)(F)F)cc3)sc12` [Example 30, [2-(7-fluoro-2,4-dimethyl-1H-indol-3-yl)ethyl]-[6-(4-trifluoromethylphenyl)thieno[3,2-d]pyrimidin-4-yl]amine], in test [2], the IC50 was determined as 0.101 µM.
As to `Cc1[nH]c2c(F)ccc(C)c2c1CCNc1ncnc2cc(-c3cc(F)ccc3F)sc12` [Example 55, [6-(2,5-difluorophenyl)thieno[3,2-d]pyrimidin-4-yl]-[2-(7-fluoro-2,4-dimethyl-1H-indol-3-yl)ethyl]amine], the IC50 in test [2] worked out at 0.097 µM.
